Data reported in EP1200395B1, “UREA DERIVATIVES AS INHIBITORS OF CCR-3 RECEPTOR” (KIRIN BEER KABUSHIKI KAISHA, priority 1999, dated 2001).

Each molecule was assayed against T1, CCR-3 (Homo sapiens, UniProt P51677) (assay: Eotaxin-induced chemotaxis of CCR-3 transfectant cells (CCR3/U937)). Conditions: test compound 0.1 µg/ml; eotaxin 1 x 10^-9 M; CCR3/U937 transfectants; 37 °C, 1 hour.
T1 sequence (P51677 1-355): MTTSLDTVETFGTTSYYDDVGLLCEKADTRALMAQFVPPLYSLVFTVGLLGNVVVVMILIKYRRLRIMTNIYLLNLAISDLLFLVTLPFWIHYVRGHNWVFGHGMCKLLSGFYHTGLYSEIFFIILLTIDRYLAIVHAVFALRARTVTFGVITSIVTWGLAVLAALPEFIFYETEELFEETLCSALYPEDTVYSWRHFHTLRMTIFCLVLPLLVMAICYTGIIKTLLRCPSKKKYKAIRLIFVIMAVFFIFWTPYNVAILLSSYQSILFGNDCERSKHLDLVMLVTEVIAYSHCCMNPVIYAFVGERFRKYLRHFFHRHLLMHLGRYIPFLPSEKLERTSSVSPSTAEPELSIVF
Assay type: cell-based
Design: expressed in transfected cells; host or cells: U937
In the case of `CCC(CC)C[N+](CC)(CCCNC(=O)Nc1ccccc1)CCc1ccc(Cl)cc1Cl.[I-]` (stereo not drawn) [compound 429], the “Chemotaxis Assay 0.1 µg/ml (inhibition %)” value is reported as 64%.
With `CCC(CC)C[N+](CC)(CCCNC(=O)Nc1ccccc1)CCc1ccc(Cl)c(Cl)c1.[I-]` (stereo not drawn) [compound 430] the “Chemotaxis Assay 0.1 µg/ml (inhibition %)” value was 76%.
`CCC(CC)C[N+](CC)(CCCNC(=O)Nc1ccccc1)CCc1cccc(F)c1.[I-]` (stereo not drawn) [compound 431] was tested, and the “Chemotaxis Assay 0.1 µg/ml (inhibition %)” value was 96%.
In the case of `CC[N+](CCF)(CCCNC(=O)Nc1ccccc1)CCc1cccc(Cl)c1.[I-]` (stereo not drawn) [compound 432], the “Chemotaxis Assay 0.1 µg/ml (inhibition %)” value is reported as 96%.
`CC[N+](CCF)(CCCNC(=O)Nc1ccccc1)CCc1ccc(Cl)cc1Cl.[I-]` (stereo not drawn) [compound 433] was tested, and the “Chemotaxis Assay 0.1 µg/ml (inhibition %)” value was 76%.
For `CC[N+](CCF)(CCCNC(=O)Nc1ccccc1)CCc1ccc(Cl)c(Cl)c1.[I-]` (stereo not drawn) [compound 434], the “Chemotaxis Assay 0.1 µg/ml (inhibition %)” value was 100%.
For `CC[N+](CCCNC(=O)Nc1ccc(OC)cc1)(CCOCCOC)CCc1cccc(F)c1.[I-]` (stereo not drawn) [compound 439], the “Chemotaxis Assay 0.1 µg/ml (inhibition %)” value was 51%.
`CCC(CC)C[N+](CC)(CCCNC(=O)Nc1ccc(OC)cc1)CCc1cccc(Cl)c1.[I-]` (stereo not drawn) [compound 448] was tested, and the “Chemotaxis Assay 0.1 µg/ml (inhibition %)” value was 82%.
In the case of `CCC(CC)C[N+](CC)(CCCNC(=O)Nc1ccc(OC)cc1)CCc1ccc(Cl)c(Cl)c1.[I-]` (stereo not drawn) [compound 449], the “Chemotaxis Assay 0.1 µg/ml (inhibition %)” value is reported as 96%.
`CCC(CC)C[N+](CC)(CCCNC(=O)Nc1ccc(OC)cc1)CCc1cccc(F)c1.[I-]` (stereo not drawn) [compound 450] was tested, and the “Chemotaxis Assay 0.1 µg/ml (inhibition %)” value was 35%.
In the case of `CC[N+](CCF)(CCCNC(=O)Nc1ccc(OC)cc1)CCc1cccc(Cl)c1.[I-]` (stereo not drawn) [compound 451], the “Chemotaxis Assay 0.1 µg/ml (inhibition %)” value is reported as 92%.
For `CC[N+](CCF)(CCCNC(=O)Nc1ccc(OC)cc1)CCc1ccc(Cl)cc1Cl.[I-]` (stereo not drawn) [compound 452], the “Chemotaxis Assay 0.1 µg/ml (inhibition %)” value was 59%.
In the case of `CC[N+](CCF)(CCCNC(=O)Nc1ccc(OC)cc1)CCc1ccc(Cl)c(Cl)c1.[I-]` (stereo not drawn) [compound 453], the “Chemotaxis Assay 0.1 µg/ml (inhibition %)” value is reported as 87%.

Each molecule was assayed against T1, CCR-3 (assay: Calcium mobilization assay (inhibition of eotaxin-induced intracellular calcium mobilization in CCR3/HEK293 cells)). Conditions: 6.25 µg/ml test compound; eotaxin 10 nM; CCR3/HEK293 cells (Table 2a).
Assay type: cell-based
Design: expressed in transfected cells
Procedure: Compounds 93-162 used in this assay were synthesized by using the method described in Example 6.
CCR-3 transfectant cells (CCR3/HEK293) were isolated and resuspended with assay buffer (20 mM HEPES, 125 mM NaCl, 5 mM KCl; 0.5 mM glucose, 1 mM CaCl2, 1 mM MgCl2, 0.1 % BSA). After washing CCR3/HEK293 cells with assay buffer, cells were loaded with Fura-2/AM in assay buffer for 1 hour at room temperature. Cells were washed and resuspended with assay buffer at 5 x 10^6 cells/ml in assay buffer, and placed in a tissue culture plate (Falcon, no. 3296). Test compounds dissolved in DMSO were added to the wells, followed by eotaxin (10 nM at final concentration). Cells were excited at 340 nm and 380 nm in a fluorimeter (ARGUS50, FDSS2000, Hamamatsu Photonics) and the relative ratio of the fluorescence emitted at 510 nm was recorded. For a control, DMSO without a test compound was added. Intracellular calcium mobilization was calculated as described in Krogel C. et al. , FEBS Let. (1989) 243 , 41-46.
With `CCN(CCCNC(=O)Nc1ccc(Cl)c(C(F)(F)F)c1)C1CCCc2ccccc21` (stereo not drawn) [Compound 93] the “Ca^2+ mobilization 6.25 µg/ml (inhibition %)” value was 50%.
For `CSCCCN(CCCNC(=O)Nc1ccc(Cl)c(C(F)(F)F)c1)Cc1ccc2c(c1)OCO2` [Compound 94], the “Ca^2+ mobilization 6.25 µg/ml (inhibition %)” value was 50%.
In the case of `CC(C)CN(CCCNC(=O)Nc1ccc(Cl)c(C(F)(F)F)c1)CCc1ccccc1` [Compound 95], the “Ca^2+ mobilization 6.25 µg/ml (inhibition %)” value is reported as 55%.
With `COc1ccc(CCN(CCCNC(=O)Nc2ccc(Cl)c(C(F)(F)F)c2)CC(C)C)cc1OC` [Compound 96] the “Ca^2+ mobilization 6.25 µg/ml (inhibition %)” value was 53%.
With `O=C(NCCCN(C[C@@H]1CCCN1)C1CCCc2ccccc21)Nc1ccccc1-c1ccccc1` (stereo partly drawn) [Compound 98] the “Ca^2+ mobilization 6.25 µg/ml (inhibition %)” value was 51%.
In the case of `O=C(O)CCCN(CCCNC(=O)Nc1ccccc1-c1ccccc1)Cc1ccc2c(c1)OCO2` [Compound 101], the “Ca^2+ mobilization 6.25 µg/ml (inhibition %)” value is reported as 63%.
For `COc1cc(CN(CCCNC(=O)Nc2ccccc2-c2ccccc2)CCCSC)cc(OC)c1OC` [Compound 103], the “Ca^2+ mobilization 6.25 µg/ml (inhibition %)” value was 53%.
`CSCCCN(CCCNC(=O)Nc1ccccc1-c1ccccc1)CCc1ccccc1` [Compound 105] was tested, and the “Ca^2+ mobilization 6.25 µg/ml (inhibition %)” value was 53%.
For `CC(C)CN(CCCNC(=O)Nc1ccccc1-c1ccccc1)CCC(c1ccccc1)c1ccccc1` [Compound 117], the “Ca^2+ mobilization 6.25 µg/ml (inhibition %)” value was 55%.
For `O=C(NCCCN(CCOCc1ccccc1)C1CCCc2ccccc21)Nc1ccc(Br)cc1` (stereo not drawn) [Compound 123], the “Ca^2+ mobilization 6.25 µg/ml (inhibition %)” value was 53%.
`CSCCCN(CCCNC(=O)Nc1ccc(Br)cc1)C1CCCc2ccccc21` (stereo not drawn) [Compound 124] was tested, and the “Ca^2+ mobilization 6.25 µg/ml (inhibition %)” value was 55%.
`O=C(NCCCN(CCOCc1ccccc1)Cc1ccc2c(c1)OCO2)Nc1ccc(Br)cc1` [Compound 127] was tested, and the “Ca^2+ mobilization 6.25 µg/ml (inhibition %)” value was 59%.
`CC(C)CN(CCCNC(=O)Nc1ccc(Br)cc1)Cc1ccc(C(F)(F)F)cc1` [Compound 129] was tested, and the “Ca^2+ mobilization 6.25 µg/ml (inhibition %)” value was 50%.
With `CSCCCN(CCCNC(=O)Nc1ccc(Br)cc1)Cc1ccc(C(F)(F)F)cc1` [Compound 130] the “Ca^2+ mobilization 6.25 µg/ml (inhibition %)” value was 51%.
For `COc1cc(CN(CCCNC(=O)Nc2ccc(Br)cc2)CCC(C)C)cc(OC)c1OC` [Compound 131], the “Ca^2+ mobilization 6.25 µg/ml (inhibition %)” value was 52%.
With `O=C(NCCCN(CCc1ccc(Cl)c(Cl)c1)C[C@@H]1CCCN1)Nc1ccc(Br)cc1` [Compound 134] the “Ca^2+ mobilization 6.25 µg/ml (inhibition %)” value was 59%.
With `COc1ccc(CCN(CCCNC(=O)Nc2cccc(C)c2)CCCSC)cc1OC` [Compound 139] the “Ca^2+ mobilization 6.25 µg/ml (inhibition %)” value was 65%.
In the case of `COc1ccc(CCN(CCCNC(=O)Nc2cccc(C)c2)CCCC(=O)O)cc1OC` [Compound 140], the “Ca^2+ mobilization 6.25 µg/ml (inhibition %)” value is reported as 54%.
`CSCCCN(CCCNC(=O)Nc1cccc(C)c1)CCc1ccc(C)cc1` [Compound 141] was tested, and the “Ca^2+ mobilization 6.25 µg/ml (inhibition %)” value was 53%.
`CSCCCN(CCCNC(=O)Nc1cccc(C)c1)CCc1ccc(Cl)c(Cl)c1` [Compound 142] was tested, and the “Ca^2+ mobilization 6.25 µg/ml (inhibition %)” value was 58%.
For `Cc1cccc(NC(=O)NCCCN(CCc2ccc(Cl)c(Cl)c2)C[C@@H]2CCCN2)c1` [Compound 143], the “Ca^2+ mobilization 6.25 µg/ml (inhibition %)” value was 64%.
In the case of `O=C(NCCCN(CCc1ccccc1)Cc1ccco1)Nc1cccc(Cl)c1` [Compound 144], the “Ca^2+ mobilization 6.25 µg/ml (inhibition %)” value is reported as 51%.
`CC(C)CCN(CCCNC(=O)Nc1cccc(Cl)c1)Cc1cccs1` [Compound 145] was tested, and the “Ca^2+ mobilization 6.25 µg/ml (inhibition %)” value was 53%.
With `CCOC(=O)C1CC1CN(CCCNC(=O)Nc1cccc(Cl)c1)Cc1cccs1` (stereo not drawn) [Compound 146] the “Ca^2+ mobilization 6.25 µg/ml (inhibition %)” value was 52%.
In the case of `O=C(NCCCN(CCc1c[nH]cn1)CC1CCCCC1)Nc1cccc(Cl)c1` [Compound 147], the “Ca^2+ mobilization 6.25 µg/ml (inhibition %)” value is reported as 51%.
With `O=C(NCCCN(CCOCc1ccccc1)CCc1c[nH]cn1)Nc1cccc(Cl)c1` [Compound 148] the “Ca^2+ mobilization 6.25 µg/ml (inhibition %)” value was 57%.
`O=C(NCCCN(C[C@@H]1CCCN1)C1CCCc2ccccc21)Nc1cccc(Cl)c1` (stereo partly drawn) [Compound 150] was tested, and the “Ca^2+ mobilization 6.25 µg/ml (inhibition %)” value was 70%.
For `Cc1ccc(CCN(CCCNC(=O)Nc2cccc(Cl)c2)CC(C)C)cc1` [Compound 151], the “Ca^2+ mobilization 6.25 µg/ml (inhibition %)” value was 54%.
`Cc1ccc(CCN(CCCNC(=O)Nc2cccc(Cl)c2)CCOCc2ccccc2)cc1` [Compound 152] was tested, and the “Ca^2+ mobilization 6.25 µg/ml (inhibition %)” value was 54%.
For `CCOC(=O)C1CC1CN(CCCNC(=O)Nc1cccc(Cl)c1)CCc1ccc(C)cc1` (stereo not drawn) [Compound 153], the “Ca^2+ mobilization 6.25 µg/ml (inhibition %)” value was 59%.
With `O=C(NCCCN(CCc1ccc(Cl)c(Cl)c1)CC1CCCCC1)Nc1cccc(Cl)c1` [Compound 154] the “Ca^2+ mobilization 6.25 µg/ml (inhibition %)” value was 55%.
For `COC(=O)CCCN(CCCNC(=O)Nc1cccc(Cl)c1)CCc1ccc(Cl)c(Cl)c1` [Compound 156], the “Ca^2+ mobilization 6.25 µg/ml (inhibition %)” value was 63%.
`COc1ccc(NC(=O)NCCCN(CCCSC)C2CCCc3ccccc32)c(OC)c1` (stereo not drawn) [Compound 157] was tested, and the “Ca^2+ mobilization 6.25 µg/ml (inhibition %)” value was 53%.
For `COc1ccc(NC(=O)NCCCN(CCCSC)CCc2ccc(Cl)c(Cl)c2)c(OC)c1` [Compound 158], the “Ca^2+ mobilization 6.25 µg/ml (inhibition %)” value was 50%.
For `COc1ccc(NC(=O)NCCCN(CCOCc2ccccc2)CCc2ccc(OC)c(OC)c2)cc1` [Compound 159], the “Ca^2+ mobilization 6.25 µg/ml (inhibition %)” value was 51%.
With `COC(=O)CCCN(CCCNC(=O)Nc1ccc(Cl)c(Cl)c1)Cc1ccc2c(c1)OCO2` [Compound 160] the “Ca^2+ mobilization 6.25 µg/ml (inhibition %)” value was 58%.
In the case of `O=C(O)CCCN(CCCNC(=O)Nc1cccc2ccccc12)Cc1ccc(C(F)(F)F)cc1` [Compound 161], the “Ca^2+ mobilization 6.25 µg/ml (inhibition %)” value is reported as 51%.
In the case of `CCOC(=O)C1CC1CN(CCCNC(=O)Nc1cccc2ccccc12)CCc1ccccc1` (stereo not drawn) [Compound 162], the “Ca^2+ mobilization 6.25 µg/ml (inhibition %)” value is reported as 50%.
